These results are taken from ChEMBL document CHEMBL3414448, “Advances in the discovery of novel antimicrobials targeting the assembly of bacterial cell division protein FtsZ” (Eur J Med Chem, 2015).

In assay [1] the target is T1, Cell division protein FtsZ (Bacillus subtilis (strain 168)) (UniProt P17865).
T1 sequence (whole entry): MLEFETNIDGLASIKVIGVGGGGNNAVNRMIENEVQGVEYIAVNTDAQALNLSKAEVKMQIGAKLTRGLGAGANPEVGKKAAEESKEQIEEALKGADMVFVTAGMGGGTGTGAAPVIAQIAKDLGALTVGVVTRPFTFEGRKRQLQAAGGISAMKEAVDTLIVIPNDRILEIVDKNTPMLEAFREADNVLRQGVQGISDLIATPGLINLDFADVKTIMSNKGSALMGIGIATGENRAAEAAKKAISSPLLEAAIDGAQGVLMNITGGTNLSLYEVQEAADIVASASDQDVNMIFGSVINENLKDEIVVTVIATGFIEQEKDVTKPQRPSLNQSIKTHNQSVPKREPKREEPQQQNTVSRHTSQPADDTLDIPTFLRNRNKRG
In words: Inhibition of Bacillus subtilis FtsZ GTPase activity. The note with it: concentration not given here.

Assay [2] concerns the target T2, Cell division protein FtsZ (Escherichia coli K-12) (UniProt P0A9A6).
T2 sequence (whole entry): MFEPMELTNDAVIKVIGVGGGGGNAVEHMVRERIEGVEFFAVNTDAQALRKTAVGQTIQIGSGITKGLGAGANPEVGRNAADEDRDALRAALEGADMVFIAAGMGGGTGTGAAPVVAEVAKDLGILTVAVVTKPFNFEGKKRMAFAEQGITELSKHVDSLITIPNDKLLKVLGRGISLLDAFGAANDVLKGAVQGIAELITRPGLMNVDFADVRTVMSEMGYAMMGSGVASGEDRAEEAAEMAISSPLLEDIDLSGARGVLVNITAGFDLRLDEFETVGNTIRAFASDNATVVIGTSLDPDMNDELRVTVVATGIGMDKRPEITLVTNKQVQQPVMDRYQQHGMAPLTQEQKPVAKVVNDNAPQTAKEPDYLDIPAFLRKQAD
Nature of the assay: Inhibition of FtsZ in Escherichia coli assessed as Z-ring containing cells level at 4 and 8 ug/ml (reference value: 88%). On the set-up: scale not given: the % may be the effect or the level left.

Assay [3] addresses T2, Cell division protein FtsZ (Escherichia coli K-12). Nature of the assay: Inhibition of Escherichia coli FtsZ assembly.
Assay [4] can be described thus: Activation of FtsZ (unknown origin) assessed as increase in enzyme GTPase activity at 30 uM.
Assay [5] concerns the target T3, Cell division protein FtsZ (Staphylococcus aureus) (UniProt P0A031).
T3 sequence (whole entry): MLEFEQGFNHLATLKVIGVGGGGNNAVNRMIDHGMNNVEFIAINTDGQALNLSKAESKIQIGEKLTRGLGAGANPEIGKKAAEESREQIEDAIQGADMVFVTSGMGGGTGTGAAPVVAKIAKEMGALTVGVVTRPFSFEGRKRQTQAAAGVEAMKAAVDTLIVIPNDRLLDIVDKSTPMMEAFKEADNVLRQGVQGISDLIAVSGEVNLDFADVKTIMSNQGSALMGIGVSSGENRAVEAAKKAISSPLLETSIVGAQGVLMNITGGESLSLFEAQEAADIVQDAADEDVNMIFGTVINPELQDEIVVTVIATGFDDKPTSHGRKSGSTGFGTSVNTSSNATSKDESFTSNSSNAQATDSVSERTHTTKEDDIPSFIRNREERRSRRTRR
Nature of the assay: Inhibition of FtsZ in methicillin-resistant Staphylococcus aureus assessed as reduction in methicillin MIC (reference value: 32 ug/ml).

Assay [6] in a line: Inhibition of FtsZ (unknown origin) assessed as reduction in frequency of Z-rings per unit cell length. Particulars: concentration not given here.

In general, inhibition refers to the relative decrease from the control value, in per cent. For `O=C(Oc1cc(OC(=O)c2cc(O)cc(O)c2)c2ccccc2c1)c1cc(O)c(O)c(O)c1`, in assay [1], the inhibition is under 20%.
Turning to `NCC[C@H](O)C(=O)N[C@@H]1C[C@H](N)[C@@H](O[C@H]2O[C@H](CN)[C@@H](O)[C@H](O)[C@H]2O)[C@H](O)[C@H]1O[C@H]1O[C@H](CO)[C@@H](O)[C@H](N)[C@H]1O`, the Activity in assay [2] was determined as 35%.
In the case of `COc1ccc(/N=C/c2ccc(OC(C)=O)c(OC)c2[N+](=O)[O-])cc1`, in assay [3], the ID50 was determined as 2.1 µM.
In the case of `COc1cc(/C=C/C(=O)CC(=O)/C=C/c2ccc(O)c(OC)c2)ccc1O`, the Activity in assay [4] came out at 35%.
Regarding `CC(C)c1c(O)ccc2c1CC[C@H]1C(C)(C)CCC[C@]21C`, the MIC in assay [5] worked out at 4 µg/mL.
With `COc1c(OC(C)=O)ccc(/C=N/c2c(C(C)C)cccc2C(C)C)c1[N+](=O)[O-]`, in assay [3], the ID50 was found to be 7.6 µM.
As for `COc1ccc2cc3[n+](cc2c1OC)CCc1cc2c(cc1-3)OCO2`, in assay [6], the inhibition was 50%.
In assay [1], `O=C(Oc1cc(OC(=O)c2ccc(O)c(Cl)c2)c2ccccc2c1)c1ccc(O)c(Cl)c1` displayed an inhibition of under 20%.
